Test results published in paper PMC10070484, “Structure and mechanism of oxalate transporter OxlT in an oxalate-degrading bacterium in the gut microbiota” (Nature Communications, 2023).

Legend:
Assay in all cases: GFP thermal shift (GFP-TS)
Format in all cases: binding
Conditions in all cases: 3 mM potassium oxalate; crude DDM-solubilised OxlT-GFPuv from E. coli membranes; 300 mM potassium acetate, pH 7.0
OxlT [1] = biological target: T1, OxlT (Oxalobacter formigenes, UniProt Q51330, W352A)
T1 construct: full-length; C-terminal nona-His tag from E. coli XL3 (crystal, purified); C-terminal GFPuv fusion from E. coli BL21(DE3) in DDM (GFP-TS); pRSF-OxlT for transport; monomer
T1 sequence (Q51330 whole entry W352A, the tested form may be a part): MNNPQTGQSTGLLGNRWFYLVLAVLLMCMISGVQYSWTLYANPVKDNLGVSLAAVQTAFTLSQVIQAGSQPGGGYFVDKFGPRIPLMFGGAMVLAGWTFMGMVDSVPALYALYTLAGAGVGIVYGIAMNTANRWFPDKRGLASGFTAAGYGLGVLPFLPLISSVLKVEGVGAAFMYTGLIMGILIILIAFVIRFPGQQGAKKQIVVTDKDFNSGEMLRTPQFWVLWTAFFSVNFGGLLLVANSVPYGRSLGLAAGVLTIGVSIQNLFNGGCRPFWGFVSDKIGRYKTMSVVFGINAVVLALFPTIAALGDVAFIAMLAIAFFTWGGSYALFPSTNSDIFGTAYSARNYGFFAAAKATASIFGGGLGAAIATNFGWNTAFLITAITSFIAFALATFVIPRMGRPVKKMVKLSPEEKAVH

OxlT [2] = biological target: T2, OxlT (Oxalobacter formigenes, UniProt Q51330)
T2 construct: full-length; C-terminal nona-His tag from E. coli XL3 (crystal, purified); C-terminal GFPuv fusion from E. coli BL21(DE3) in DDM (GFP-TS); pRSF-OxlT for transport; monomer
T2 sequence (Q51330 1-418): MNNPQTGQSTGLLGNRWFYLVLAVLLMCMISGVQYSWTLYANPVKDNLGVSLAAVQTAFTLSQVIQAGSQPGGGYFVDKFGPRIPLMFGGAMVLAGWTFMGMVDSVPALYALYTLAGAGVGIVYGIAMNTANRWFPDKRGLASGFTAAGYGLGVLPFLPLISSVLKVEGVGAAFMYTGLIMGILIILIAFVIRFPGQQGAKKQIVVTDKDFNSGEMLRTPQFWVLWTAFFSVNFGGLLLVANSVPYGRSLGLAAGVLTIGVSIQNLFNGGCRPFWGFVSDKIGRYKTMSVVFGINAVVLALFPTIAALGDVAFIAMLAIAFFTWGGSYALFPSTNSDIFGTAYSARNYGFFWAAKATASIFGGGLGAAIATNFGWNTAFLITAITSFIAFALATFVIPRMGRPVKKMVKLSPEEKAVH

OxlT [3] = biological target: T3, OxlT (Oxalobacter formigenes, UniProt Q51330, K355Q)
T3 construct: full-length; C-terminal nona-His tag from E. coli XL3 (crystal, purified); C-terminal GFPuv fusion from E. coli BL21(DE3) in DDM (GFP-TS); pRSF-OxlT for transport; monomer
T3 sequence (Q51330 whole entry K355Q, the tested form may be a part): as the sequence (Q51330 whole entry W352A, the tested form may be a part) above, with A352W, K355Q counted along it

OxlT [4] = biological target: T4, OxlT (Oxalobacter formigenes, UniProt Q51330, Q34A)
T4 construct: full-length; C-terminal nona-His tag from E. coli XL3 (crystal, purified); C-terminal GFPuv fusion from E. coli BL21(DE3) in DDM (GFP-TS); pRSF-OxlT for transport; monomer
T4 sequence (Q51330 whole entry Q34A, the tested form may be a part): as the sequence (Q51330 whole entry W352A, the tested form may be a part) above, with Q34A, A352W counted along it

OxlT [5] = biological target: T5, OxlT (Oxalobacter formigenes, UniProt Q51330, Y124A)
T5 construct: full-length; C-terminal nona-His tag from E. coli XL3 (crystal, purified); C-terminal GFPuv fusion from E. coli BL21(DE3) in DDM (GFP-TS); pRSF-OxlT for transport; monomer
T5 sequence (Q51330 whole entry Y124A, the tested form may be a part): as the sequence (Q51330 whole entry W352A, the tested form may be a part) above, with Y124A, A352W counted along it

OxlT [6] = biological target: T6, OxlT (Oxalobacter formigenes, UniProt Q51330, Y328A)
T6 construct: full-length; C-terminal nona-His tag from E. coli XL3 (crystal, purified); C-terminal GFPuv fusion from E. coli BL21(DE3) in DDM (GFP-TS); pRSF-OxlT for transport; monomer
T6 sequence (Q51330 whole entry Y328A, the tested form may be a part): as the sequence (Q51330 whole entry W352A, the tested form may be a part) above, with Y328A, A352W counted along it

OxlT [7] = biological target: T7, OxlT (Oxalobacter formigenes, UniProt Q51330, R272A)
T7 construct: full-length; C-terminal nona-His tag from E. coli XL3 (crystal, purified); C-terminal GFPuv fusion from E. coli BL21(DE3) in DDM (GFP-TS); pRSF-OxlT for transport; monomer
T7 sequence (Q51330 whole entry R272A, the tested form may be a part): as the sequence (Q51330 whole entry W352A, the tested form may be a part) above, with R272A, A352W counted along it

OxlT [8] = biological target: T8, OxlT (Oxalobacter formigenes, UniProt Q51330, Y35A)
T8 construct: full-length; C-terminal nona-His tag from E. coli XL3 (crystal, purified); C-terminal GFPuv fusion from E. coli BL21(DE3) in DDM (GFP-TS); pRSF-OxlT for transport; monomer
T8 sequence (Q51330 whole entry Y35A, the tested form may be a part): as the sequence (Q51330 whole entry W352A, the tested form may be a part) above, with Y35A, A352W counted along it

OxlT [9] = biological target: T9, OxlT (Oxalobacter formigenes, UniProt Q51330, W324A)
T9 construct: full-length; C-terminal nona-His tag from E. coli XL3 (crystal, purified); C-terminal GFPuv fusion from E. coli BL21(DE3) in DDM (GFP-TS); pRSF-OxlT for transport; monomer
T9 sequence (Q51330 whole entry W324A, the tested form may be a part): as the sequence (Q51330 whole entry W352A, the tested form may be a part) above, with W324A, A352W counted along it

OxlT [10] = biological target: T10, OxlT (Oxalobacter formigenes, UniProt Q51330, Y150A)
T10 construct: full-length; C-terminal nona-His tag from E. coli XL3 (crystal, purified); C-terminal GFPuv fusion from E. coli BL21(DE3) in DDM (GFP-TS); pRSF-OxlT for transport; monomer
T10 sequence (Q51330 whole entry Y150A, the tested form may be a part): as the sequence (Q51330 whole entry W352A, the tested form may be a part) above, with Y150A, A352W counted along it

OxlT [11] = biological target: T11, OxlT (Oxalobacter formigenes, UniProt Q51330, N268A)
T11 construct: full-length; C-terminal nona-His tag from E. coli XL3 (crystal, purified); C-terminal GFPuv fusion from E. coli BL21(DE3) in DDM (GFP-TS); pRSF-OxlT for transport; monomer
T11 sequence (Q51330 whole entry N268A, the tested form may be a part): as the sequence (Q51330 whole entry W352A, the tested form may be a part) above, with N268A, A352W counted along it

`O=C(O)C(=O)O` [oxalate] was tested, and the dTm (OxlT [1]) was “Y328A and W352A showed similar oxalate binding but reduced oxalate uptake activities”, the dTm (OxlT [2]) was “In the GFP-TS assay, wild-type OxlT exhibited thermal stabilisation upon oxalate binding” and the dTm (OxlT [3]) was “reduced in the mutant OxlT proteins Q34A, Y35A, Y124A, Y150A, N268A, R272A, W324A and K355Q”. The dTm (OxlT [4]) was “reduced in the mutant OxlT proteins Q34A, Y35A, Y124A, Y150A, N268A, R272A, W324A and K355Q”, the dTm (OxlT [5]) was “reduced in the mutant OxlT proteins Q34A, Y35A, Y124A, Y150A, N268A, R272A, W324A and K355Q” and the dTm (OxlT [6]) was “Y328A and W352A showed similar oxalate binding but reduced oxalate uptake activities”. For the same compound, the dTm (OxlT [7]) was “reduced in the mutant OxlT proteins Q34A, Y35A, Y124A, Y150A, N268A, R272A, W324A and K355Q”, the dTm (OxlT [8]) was “reduced in the mutant OxlT proteins Q34A, Y35A, Y124A, Y150A, N268A, R272A, W324A and K355Q” and the dTm (OxlT [9]) was “reduced in the mutant OxlT proteins Q34A, Y35A, Y124A, Y150A, N268A, R272A, W324A and K355Q”. For the same compound, the dTm (OxlT [10]) was “reduced in the mutant OxlT proteins Q34A, Y35A, Y124A, Y150A, N268A, R272A, W324A and K355Q” and the dTm (OxlT [11]) was “reduced in the mutant OxlT proteins Q34A, Y35A, Y124A, Y150A, N268A, R272A, W324A and K355Q”.
